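1) Cells in 96-well plates. 2) Compound, 48 h, 5 concentrations. 3) Linear interpolation between surrounding doses. 4) Unreached endpoint = highest concentration. At the TGI there is no net growth.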
How the values were obtained:
Assay in all cases: NCI anticancer screen, dose series, 48 h
[1] = system: DU-145 prostate
[2] = system: HCT-15 colon
[3] = system: SNB-75 CNS
[4] = system: OVCAR-3 ovarian
[5] = system: SF-268 CNS
[6] = system: SW-620 colon
[7] = system: NCI/ADR-RES ovarian
[8] = system: U251 CNS
[9] = system: NCI-H460 lung
[10] = system: ACHN renal
[11] = system: SK-MEL-5 melanoma
[12] = system: HT29 colon
[13] = system: EKVX NSCLC
[14] = system: CAKI-1 renal
[15] = system: SF-539 CNS
[16] = system: HCC-2998 colon
[17] = system: CCRF-CEM leukemia
[18] = system: MDA-N

With `CC(C)(C)OC(=O)N(CCNS(=O)(=O)c1cccc2cnccc12)CCC(=O)ON1C(=O)CCC1=O` the TGI [1] was > 100 µM, the TGI [2] was > 100 µM and the TGI [3] was > 100 µM. For the same molecule, the TGI [4] was > 100 µM, the TGI [5] was > 100 µM and the TGI [6] was > 100 µM. The TGI [7] was > 100 µM, the TGI [8] was > 100 µM and the TGI [9] was > 100 µM. For the same molecule, the TGI [10] was > 100 µM, the TGI [11] was > 100 µM and the TGI [12] was > 100 µM. The TGI [13] was > 100 µM.

In the case of `COc1cccc2nc3cc(C)c(C)cc3nc12`, the TGI [2] is reported as > 100 µM, the TGI [3] is reported as > 100 µM and the TGI [4] is reported as > 100 µM. For the same molecule, the TGI [5] was > 100 µM, the TGI [6] was > 100 µM and the TGI [8] was > 100 µM. The TGI [9] was > 100 µM, the TGI [10] was > 100 µM and the TGI [14] was > 100 µM. For the same molecule, the TGI [11] was > 100 µM, the TGI [12] was > 100 µM and the TGI [15] was > 100 µM. The TGI [16] was > 100 µM, the TGI [13] was > 100 µM and the TGI [17] was > 100 µM.

Molecule `CN(C)CCn1c(=O)c2ccc3c4c(nn3CCN(C)C)c3cc(O)ccc3n(c1=O)c24` has a TGI [2] of 3.36 µM, a TGI [18] of 0.603 µM and a TGI [3] of 1.42 µM. The TGI [4] was 0.842 µM, the TGI [5] was 0.591 µM and the TGI [6] was 3.61 µM. It also gave a TGI [7] of 6.82 µM, a TGI [9] of 0.254 µM and a TGI [10] of 0.689 µM. The TGI [14] was 0.291 µM, the TGI [11] was 0.787 µM and the TGI [12] was 0.262 µM. It also gave a TGI [15] of 3.15 µM, a TGI [16] of 0.176 µM and a TGI [13] of 0.366 µM. The TGI [17] was 0.656 µM.

With `c1ccc(C2OCCO2)c(OCCOc2cc(OCCOc3ccccc3C3OCCO3)c(OCCOc3ccccc3C3OCCO3)cc2OCCOc2ccccc2C2OCCO2)c1` the TGI [2] was > 100 µM, the TGI [3] was 7.06 µM and the TGI [4] was 46.8 µM. For the same molecule, the TGI [5] was 66.5 µM, the TGI [6] was > 100 µM and the TGI [8] was 23.9 µM. For the same molecule, the TGI [9] was > 100 µM, the TGI [10] was > 100 µM and the TGI [14] was > 100 µM. The TGI [11] was > 100 µM, the TGI [12] was > 100 µM and the TGI [15] was 32.7 µM. For the same molecule, the TGI [17] was > 100 µM.

Work on `O=C1Nc2ccccc2/C1=C/c1c(Cl)[nH]c2ccc(O)cc12` yielded a TGI [1] of 6.69 µM, a TGI [2] of 17.5 µM and a TGI [18] of 1.6 µM. The TGI [3] was 12.4 µM, the TGI [4] was > 48.1 µM and the TGI [5] was > 43.7 µM. For the same molecule, the TGI [6] was 20.7 µM, the TGI [8] was 14.5 µM and the TGI [9] was 13.9 µM. For the same molecule, the TGI [10] was 31.4 µM, the TGI [14] was 36 µM and the TGI [11] was 9.54 µM. It also gave a TGI [12] of 12.1 µM, a TGI [15] of 2.16 µM and a TGI [16] of 24.2 µM. The TGI [13] was 22.5 µM and the TGI [17] was 10.1 µM.

In the case of `Cc1ccc(-c2c(C#N)c(N)nc3c2CCS(=O)(=O)c2ccccc2-3)cc1`, the TGI [1] is reported as > 100 µM, the TGI [2] is reported as > 100 µM and the TGI [18] is reported as > 100 µM. The TGI [3] was 78.9 µM, the TGI [5] was > 100 µM and the TGI [6] was > 100 µM. For the same molecule, the TGI [7] was > 100 µM, the TGI [8] was > 100 µM and the TGI [9] was > 100 µM. The TGI [10] was > 100 µM, the TGI [14] was > 100 µM and the TGI [11] was > 100 µM. For the same molecule, the TGI [12] was > 100 µM and the TGI [16] was > 100 µM.

With `CCOc1ncn(-c2ccc(NC(=S)NC34CC5CC(CC(C5)C3)C4)cc2)n1` the TGI [1] was > 100 µM, the TGI [2] was > 100 µM and the TGI [18] was > 100 µM. For the same molecule, the TGI [3] was 76.2 µM, the TGI [4] was > 100 µM and the TGI [5] was > 100 µM. The TGI [6] was > 100 µM, the TGI [9] was > 100 µM and the TGI [11] was > 100 µM. For the same molecule, the TGI [12] was > 100 µM, the TGI [15] was > 100 µM and the TGI [16] was > 100 µM. For the same molecule, the TGI [13] was > 100 µM and the TGI [17] was > 100 µM.

With `O=C1[C@@H]2C[C@@H](O)CN2C(=O)c2ccccc2N1CCCO` the TGI [1] was > 100 µM, the TGI [2] was > 100 µM and the TGI [18] was > 100 µM. For the same molecule, the TGI [3] was > 100 µM, the TGI [4] was > 100 µM and the TGI [5] was > 100 µM. For the same molecule, the TGI [6] was > 100 µM, the TGI [7] was > 100 µM and the TGI [8] was > 100 µM. For the same molecule, the TGI [9] was > 100 µM, the TGI [10] was > 100 µM and the TGI [12] was > 100 µM. For the same molecule, the TGI [15] was > 100 µM and the TGI [13] was > 100 µM.

`O=C1CCCCC/C1=C\c1ccc(Cl)cc1` was tested, and the TGI [1] was > 100 µM, the TGI [2] was > 100 µM and the TGI [18] was > 100 µM. For the same molecule, the TGI [3] was 81.3 µM, the TGI [4] was > 100 µM and the TGI [5] was 55.5 µM. The TGI [6] was 61.2 µM, the TGI [8] was > 100 µM and the TGI [9] was > 100 µM. The TGI [10] was > 100 µM, the TGI [14] was > 100 µM and the TGI [11] was 35.2 µM. For the same molecule, the TGI [12] was 54.5 µM, the TGI [16] was 96.2 µM and the TGI [13] was > 100 µM. The TGI [17] was 50.3 µM.

With `c1ccc(C2OCC(OC3CCCCO3)CO2)cc1` (configuration not stated) the TGI [1] was > 100 µM, the TGI [2] was > 100 µM and the TGI [18] was > 100 µM. The TGI [4] was > 100 µM, the TGI [5] was > 100 µM and the TGI [6] was > 100 µM. The TGI [7] was > 100 µM, the TGI [8] was > 100 µM and the TGI [9] was > 100 µM. The TGI [10] was > 100 µM, the TGI [14] was > 100 µM and the TGI [11] was > 100 µM. For the same molecule, the TGI [12] was > 100 µM, the TGI [15] was > 100 µM and the TGI [16] was > 100 µM. For the same molecule, the TGI [13] was > 100 µM.

With `O=C(CNC(=O)OCc1ccccc1)NCCCCC(NC(=O)OCc1ccccc1)C(=O)NC(CCCCNC(=O)CNC(=O)OCc1ccccc1)C(=O)OCc1ccccc1` (configuration not stated) the TGI [1] was > 62.5 µM, the TGI [2] was > 62.5 µM and the TGI [3] was > 62.5 µM. For the same molecule, the TGI [4] was > 62.5 µM, the TGI [5] was > 62.5 µM and the TGI [6] was > 62.5 µM. For the same molecule, the TGI [8] was > 62.5 µM, the TGI [9] was > 62.5 µM and the TGI [10] was > 62.5 µM. For the same molecule, the TGI [14] was > 62.5 µM, the TGI [11] was > 62.5 µM and the TGI [12] was > 62.5 µM. For the same molecule, the TGI [16] was > 62.5 µM and the TGI [17] was > 62.5 µM.

For `CCOC(=O)Nc1nn(C)c(=NCc2ccccc2)s1`, the TGI [1] was > 100 µM, the TGI [2] was > 100 µM and the TGI [18] was > 100 µM. For the same molecule, the TGI [3] was > 100 µM, the TGI [4] was > 100 µM and the TGI [6] was > 100 µM. For the same molecule, the TGI [8] was > 100 µM, the TGI [9] was > 100 µM and the TGI [10] was > 100 µM. For the same molecule, the TGI [14] was > 100 µM, the TGI [11] was > 100 µM and the TGI [15] was > 100 µM. For the same molecule, the TGI [13] was > 100 µM and the TGI [17] was > 100 µM.

In the case of `Clc1nc(NCCc2ccccc2)c2ncn(-c3ccccc3)c2n1`, the TGI [1] is reported as 83.4 µM, the TGI [2] is reported as > 100 µM and the TGI [18] is reported as 40.2 µM. For the same molecule, the TGI [3] was 90.4 µM, the TGI [4] was 82.2 µM and the TGI [5] was > 100 µM. For the same molecule, the TGI [6] was > 100 µM, the TGI [7] was 57.9 µM and the TGI [8] was 48.6 µM. For the same molecule, the TGI [9] was 33.7 µM, the TGI [10] was 92.7 µM and the TGI [14] was 34 µM. For the same molecule, the TGI [11] was 32.5 µM, the TGI [12] was 34.2 µM and the TGI [16] was 45.5 µM. For the same molecule, the TGI [13] was 68.3 µM.

`CC(C)C1COC(c2cccc(C3=N[C@@H](C(C)C)CO3)n2)=N1` (some centres not stated) was tested, and the TGI [2] was > 100 µM, the TGI [3] was > 100 µM and the TGI [4] was > 100 µM. The TGI [5] was > 100 µM, the TGI [6] was > 100 µM and the TGI [8] was > 100 µM. For the same molecule, the TGI [9] was > 100 µM, the TGI [10] was > 100 µM and the TGI [14] was > 100 µM. The TGI [11] was > 100 µM, the TGI [12] was > 100 µM and the TGI [15] was > 100 µM. For the same molecule, the TGI [16] was > 100 µM, the TGI [13] was > 100 µM and the TGI [17] was > 100 µM.

In the case of `O=c1oc(-c2ccccc2)c(-c2ccccc2)n1-c1ccc(Br)cc1`, the TGI [1] is reported as 89.4 µM, the TGI [2] is reported as > 100 µM and the TGI [3] is reported as 32.2 µM. The TGI [4] was > 100 µM, the TGI [5] was > 100 µM and the TGI [6] was > 100 µM. For the same molecule, the TGI [8] was > 100 µM, the TGI [9] was > 100 µM and the TGI [10] was > 100 µM. The TGI [14] was > 100 µM, the TGI [11] was > 100 µM and the TGI [12] was > 100 µM. For the same molecule, the TGI [15] was 53.8 µM, the TGI [13] was > 100 µM and the TGI [17] was > 100 µM.

— PubChem BioAssay (NCI)
